Measurements published in the kinase profiling compilation of Christmann-Franck et al. (2016).

Assays:
Test in all cases: radiometric filter-binding kinase assay
[1] = biological target: CDK2 CCNA2 (human) (UniProt P20248+P24941); details: ATP 20 µM
[2] = biological target: PRKACA (human) (UniProt P17612); details: ATP 20 µM
[3] = biological target: PIM3 (human) (UniProt Q86V86); details: ATP 20 µM
[4] = biological target: HIPK2 (human) (UniProt Q9H2X6); details: ATP 5 µM
[5] = biological target: MAPK3 (human) (UniProt P27361); details: ATP 5 µM
Sequence of MAPK3 (human) (P27361 whole entry, looked up): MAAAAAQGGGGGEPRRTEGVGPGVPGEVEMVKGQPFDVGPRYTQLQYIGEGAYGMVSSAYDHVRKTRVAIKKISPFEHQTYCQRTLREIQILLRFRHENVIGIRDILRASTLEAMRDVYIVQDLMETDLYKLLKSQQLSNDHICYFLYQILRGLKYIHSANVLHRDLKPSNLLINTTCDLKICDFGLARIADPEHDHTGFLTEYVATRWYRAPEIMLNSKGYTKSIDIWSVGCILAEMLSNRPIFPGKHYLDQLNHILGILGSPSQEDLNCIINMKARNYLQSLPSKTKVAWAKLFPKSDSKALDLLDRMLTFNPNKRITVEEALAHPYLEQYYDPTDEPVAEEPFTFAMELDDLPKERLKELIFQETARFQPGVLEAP

[6] = biological target: CAMKK2 (human) (UniProt Q96RR4); details: ATP 20 µM
Sequence of CAMKK2 (human) (Q96RR4 whole entry, looked up): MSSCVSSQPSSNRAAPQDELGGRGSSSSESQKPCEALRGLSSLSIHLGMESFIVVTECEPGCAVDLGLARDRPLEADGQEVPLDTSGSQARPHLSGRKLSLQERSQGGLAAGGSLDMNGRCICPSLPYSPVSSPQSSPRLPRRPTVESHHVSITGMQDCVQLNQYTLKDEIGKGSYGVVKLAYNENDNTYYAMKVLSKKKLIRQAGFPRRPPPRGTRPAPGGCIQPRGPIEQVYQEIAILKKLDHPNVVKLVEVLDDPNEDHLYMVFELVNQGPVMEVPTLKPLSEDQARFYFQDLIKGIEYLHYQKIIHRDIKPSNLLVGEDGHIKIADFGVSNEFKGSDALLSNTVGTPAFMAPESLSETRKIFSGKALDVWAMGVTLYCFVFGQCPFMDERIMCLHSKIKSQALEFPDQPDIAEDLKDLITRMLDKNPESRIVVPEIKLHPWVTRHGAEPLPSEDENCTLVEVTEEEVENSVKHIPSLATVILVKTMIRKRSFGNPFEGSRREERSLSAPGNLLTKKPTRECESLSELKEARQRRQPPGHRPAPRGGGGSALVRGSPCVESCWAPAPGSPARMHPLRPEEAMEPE

[7] = biological target: GSK3B (human) (UniProt P49841); details: ATP 5 µM
[8] = biological target: PRKCA (human) (UniProt P17252); details: ATP 20 µM
[9] = biological target: STK3 (human) (UniProt Q13188); details: ATP 20 µM
[10] = biological target: MAP2K1 (human) (UniProt Q02750); details: ATP 5 µM
[11] = biological target: BRSK2 (human) (UniProt Q8IWQ3); details: ATP 50 µM
Sequence of BRSK2 (human) (Q8IWQ3 whole entry, looked up): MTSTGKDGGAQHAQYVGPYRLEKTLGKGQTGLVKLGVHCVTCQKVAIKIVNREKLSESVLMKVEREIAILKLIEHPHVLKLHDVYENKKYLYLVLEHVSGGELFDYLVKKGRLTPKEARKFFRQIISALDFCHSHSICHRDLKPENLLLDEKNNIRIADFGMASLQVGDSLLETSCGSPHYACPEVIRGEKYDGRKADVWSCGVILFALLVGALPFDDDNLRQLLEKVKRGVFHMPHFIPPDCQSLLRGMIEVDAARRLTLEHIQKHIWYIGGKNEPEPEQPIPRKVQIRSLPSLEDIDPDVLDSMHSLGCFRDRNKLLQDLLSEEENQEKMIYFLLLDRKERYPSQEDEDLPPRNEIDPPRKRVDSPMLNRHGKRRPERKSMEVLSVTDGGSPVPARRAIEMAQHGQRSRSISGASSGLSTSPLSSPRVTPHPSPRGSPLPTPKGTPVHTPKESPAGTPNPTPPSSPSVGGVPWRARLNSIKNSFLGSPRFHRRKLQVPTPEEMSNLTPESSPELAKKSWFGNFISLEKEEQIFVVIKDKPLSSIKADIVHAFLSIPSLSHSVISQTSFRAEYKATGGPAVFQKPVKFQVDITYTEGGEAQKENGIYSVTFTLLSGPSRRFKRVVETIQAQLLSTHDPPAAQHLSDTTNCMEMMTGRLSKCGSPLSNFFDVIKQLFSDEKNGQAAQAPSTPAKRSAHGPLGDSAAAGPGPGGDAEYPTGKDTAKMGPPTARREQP

[12] = biological target: INSR (human) (UniProt P06213); details: ATP 20 µM
Sequence of INSR (human) (P06213 whole entry, looked up): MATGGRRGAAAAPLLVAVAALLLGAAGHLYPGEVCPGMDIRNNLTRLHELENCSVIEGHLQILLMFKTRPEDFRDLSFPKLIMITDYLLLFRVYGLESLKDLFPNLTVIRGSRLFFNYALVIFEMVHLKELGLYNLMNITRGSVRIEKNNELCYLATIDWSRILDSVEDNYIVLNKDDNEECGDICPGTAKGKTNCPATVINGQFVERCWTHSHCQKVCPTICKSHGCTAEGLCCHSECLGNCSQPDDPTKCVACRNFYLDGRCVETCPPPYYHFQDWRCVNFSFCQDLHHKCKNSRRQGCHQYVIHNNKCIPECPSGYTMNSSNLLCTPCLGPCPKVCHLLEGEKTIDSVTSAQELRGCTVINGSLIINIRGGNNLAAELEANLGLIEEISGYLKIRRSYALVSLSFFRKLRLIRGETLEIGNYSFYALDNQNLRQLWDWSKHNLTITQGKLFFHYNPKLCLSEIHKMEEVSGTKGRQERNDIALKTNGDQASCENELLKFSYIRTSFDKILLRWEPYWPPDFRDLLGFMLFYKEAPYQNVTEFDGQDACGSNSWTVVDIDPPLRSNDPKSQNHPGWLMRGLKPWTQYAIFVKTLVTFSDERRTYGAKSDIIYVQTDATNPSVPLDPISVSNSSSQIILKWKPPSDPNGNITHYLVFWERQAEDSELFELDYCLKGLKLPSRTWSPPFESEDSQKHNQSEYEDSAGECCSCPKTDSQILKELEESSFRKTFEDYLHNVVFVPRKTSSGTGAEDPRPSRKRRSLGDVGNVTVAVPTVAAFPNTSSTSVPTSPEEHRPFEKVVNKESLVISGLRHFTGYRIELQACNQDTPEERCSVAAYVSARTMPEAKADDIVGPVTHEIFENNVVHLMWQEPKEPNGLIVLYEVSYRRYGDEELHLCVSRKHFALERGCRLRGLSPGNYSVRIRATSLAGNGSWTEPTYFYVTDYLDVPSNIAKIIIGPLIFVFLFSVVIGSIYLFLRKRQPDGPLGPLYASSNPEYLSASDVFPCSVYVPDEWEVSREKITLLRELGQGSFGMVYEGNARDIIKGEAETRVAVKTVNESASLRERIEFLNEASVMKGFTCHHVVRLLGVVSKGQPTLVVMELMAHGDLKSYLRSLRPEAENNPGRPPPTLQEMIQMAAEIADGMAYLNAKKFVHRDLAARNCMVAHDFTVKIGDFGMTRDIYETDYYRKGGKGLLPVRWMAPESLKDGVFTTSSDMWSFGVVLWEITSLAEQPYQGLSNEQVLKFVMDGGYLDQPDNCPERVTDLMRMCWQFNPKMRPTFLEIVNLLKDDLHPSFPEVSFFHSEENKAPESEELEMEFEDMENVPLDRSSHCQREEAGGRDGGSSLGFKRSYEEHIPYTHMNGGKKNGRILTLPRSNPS

[13] = biological target: PIM1 (human) (UniProt P11309); details: ATP 20 µM
[14] = biological target: MST4 (human) (UniProt Q9P289); details: ATP 20 µM
Sequence of MST4 (human) (Q9P289 whole entry, looked up): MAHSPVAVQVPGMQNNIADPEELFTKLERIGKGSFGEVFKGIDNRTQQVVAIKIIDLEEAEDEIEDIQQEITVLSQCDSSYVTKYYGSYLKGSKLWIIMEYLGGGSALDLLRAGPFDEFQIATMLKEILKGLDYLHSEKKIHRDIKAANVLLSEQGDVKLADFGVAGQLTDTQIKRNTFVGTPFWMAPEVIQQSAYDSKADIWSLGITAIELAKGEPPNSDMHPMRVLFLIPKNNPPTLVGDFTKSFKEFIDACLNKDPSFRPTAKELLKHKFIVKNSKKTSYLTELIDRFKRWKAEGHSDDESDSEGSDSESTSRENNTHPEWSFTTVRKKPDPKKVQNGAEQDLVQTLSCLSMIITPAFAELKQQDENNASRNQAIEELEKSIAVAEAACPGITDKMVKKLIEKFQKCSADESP

[15] = biological target: MAPK12 (human) (UniProt P53778); details: ATP 5 µM
[16] = biological target: PI4KB (human) (UniProt Q9UBF8)
[17] = biological target: CHEK1 (human) (UniProt O14757); details: ATP 20 µM
[18] = biological target: PIM2 (human) (UniProt Q9P1W9); details: ATP 5 µM
[19] = biological target: PAK6 (human) (UniProt Q9NQU5); details: ATP 20 µM
Sequence of PAK6 (human) (Q9NQU5 whole entry, looked up): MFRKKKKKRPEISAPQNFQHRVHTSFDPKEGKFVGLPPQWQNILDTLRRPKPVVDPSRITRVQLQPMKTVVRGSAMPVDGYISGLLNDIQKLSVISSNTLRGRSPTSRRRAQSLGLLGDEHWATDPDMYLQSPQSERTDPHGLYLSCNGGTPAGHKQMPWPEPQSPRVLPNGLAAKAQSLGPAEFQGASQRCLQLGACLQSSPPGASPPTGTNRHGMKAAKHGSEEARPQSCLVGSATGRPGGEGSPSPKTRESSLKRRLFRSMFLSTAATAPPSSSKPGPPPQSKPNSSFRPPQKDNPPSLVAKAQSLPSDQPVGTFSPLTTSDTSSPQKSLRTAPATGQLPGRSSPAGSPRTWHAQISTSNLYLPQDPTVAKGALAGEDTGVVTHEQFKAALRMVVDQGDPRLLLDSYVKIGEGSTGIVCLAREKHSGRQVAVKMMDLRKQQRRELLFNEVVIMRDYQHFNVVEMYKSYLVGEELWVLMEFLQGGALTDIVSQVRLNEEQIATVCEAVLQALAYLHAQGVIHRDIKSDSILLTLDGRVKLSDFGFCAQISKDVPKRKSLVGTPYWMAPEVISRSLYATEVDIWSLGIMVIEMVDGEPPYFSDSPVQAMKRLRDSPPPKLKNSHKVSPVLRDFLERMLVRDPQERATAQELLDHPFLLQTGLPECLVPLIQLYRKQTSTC

[20] = biological target: EPHB3 (human) (UniProt P54753); details: ATP 20 µM
[21] = biological target: RPS6KA5 KD1 KD2 (human) (UniProt O75582); details: ATP 100 µM
[22] = biological target: MKNK2 (human) (UniProt Q9HBH9); details: ATP 50 µM
[23] = biological target: CHEK2 (human) (UniProt O96017); details: ATP 20 µM
[24] = tested on: AKT2 (human), P31751 [S474D]; details: ATP 50 µM
Sequence of AKT2 (human), P31751 [S474D] (P31751 whole entry S474D, looked up): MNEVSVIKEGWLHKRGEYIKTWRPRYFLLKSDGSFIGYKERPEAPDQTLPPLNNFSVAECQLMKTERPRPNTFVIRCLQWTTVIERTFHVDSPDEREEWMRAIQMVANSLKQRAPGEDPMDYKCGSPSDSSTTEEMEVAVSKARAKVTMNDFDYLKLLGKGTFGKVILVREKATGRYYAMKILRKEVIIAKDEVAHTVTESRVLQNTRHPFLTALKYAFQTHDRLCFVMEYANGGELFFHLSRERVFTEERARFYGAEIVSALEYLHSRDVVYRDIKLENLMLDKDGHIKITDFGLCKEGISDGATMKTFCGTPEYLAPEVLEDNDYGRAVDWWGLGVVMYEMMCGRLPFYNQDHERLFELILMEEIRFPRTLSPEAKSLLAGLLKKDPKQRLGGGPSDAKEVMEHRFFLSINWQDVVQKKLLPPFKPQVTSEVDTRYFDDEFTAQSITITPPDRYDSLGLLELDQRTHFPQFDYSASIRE

[25] = biological target: IGF1R (human) (UniProt P08069); details: ATP 5 µM
[26] = biological target: SYK (human) (UniProt P43405); details: ATP 20 µM
[27] = biological target: PRKCZ (human) (UniProt Q05513); details: ATP 5 µM
[28] = biological target: RPS6KA1 KD1 KD2 (human) (UniProt Q15418); details: ATP 100 µM

CCc1cncnc1N1CCN(Cc2nc3cc(C(F)(F)F)ccc3[nH]2)CC1
residual activity ([1]; compound 0.1 µM): 102% | residual activity ([1]; compound 1.0 µM): 101% | residual activity ([1]; compound 10.0 µM): 88% | residual activity ([2]; compound 0.1 µM): 84% | residual activity ([2]; compound 1.0 µM): 83% | residual activity ([2]; compound 10.0 µM): 34% | residual activity ([3]; compound 0.1 µM): 93% | residual activity ([3]; compound 1.0 µM): 88% | residual activity ([3]; compound 10.0 µM): 83% | residual activity ([4]; compound 0.1 µM): 108% | residual activity ([4]; compound 1.0 µM): 86% | residual activity ([4]; compound 10.0 µM): 88% | residual activity ([5]; compound 0.1 µM): 93% | residual activity ([5]; compound 1.0 µM): 85% | residual activity ([5]; compound 10.0 µM): 83% | residual activity ([6]; compound 0.1 µM): 99% | residual activity ([6]; compound 1.0 µM): 98% | residual activity ([6]; compound 10.0 µM): 80% | residual activity ([7]; compound 0.1 µM): 87% | residual activity ([7]; compound 1.0 µM): 96% | residual activity ([7]; compound 10.0 µM): 92% | residual activity ([8]; compound 0.1 µM): 119% | residual activity ([8]; compound 1.0 µM): 106% | residual activity ([8]; compound 10.0 µM): 62% | residual activity ([9]; compound 0.1 µM): 95% | residual activity ([9]; compound 1.0 µM): 85% | residual activity ([9]; compound 10.0 µM): 77% | residual activity ([10]; compound 0.1 µM): 117% | residual activity ([10]; compound 1.0 µM): 104% | residual activity ([10]; compound 10.0 µM): 96% | residual activity ([11]; compound 0.1 µM): 88% | residual activity ([11]; compound 1.0 µM): 84% | residual activity ([11]; compound 10.0 µM): 83% | residual activity ([12]; compound 0.1 µM): 108% | residual activity ([12]; compound 1.0 µM): 95% | residual activity ([12]; compound 10.0 µM): 96% | residual activity ([13]; compound 0.1 µM): 88% | residual activity ([13]; compound 1.0 µM): 90% | residual activity ([13]; compound 10.0 µM): 78% | residual activity ([14]; compound 0.1 µM): 87% | residual activity ([14]; compound 1.0 µM): 77% | residual activity ([14]; compound 10.0 µM): 46% | residual activity ([15]; compound 0.1 µM): 107% | residual activity ([15]; compound 1.0 µM): 102% | residual activity ([15]; compound 10.0 µM): 103% | residual activity ([16]; compound 1.0 µM): 103% | residual activity ([16]; compound 10.0 µM): 99% | residual activity ([17]; compound 0.1 µM): 90% | residual activity ([17]; compound 1.0 µM): 83% | residual activity ([17]; compound 10.0 µM): 83% | residual activity ([18]; compound 0.1 µM): 90% | residual activity ([18]; compound 1.0 µM): 90% | residual activity ([18]; compound 10.0 µM): 100% | residual activity ([19]; compound 0.1 µM): 99% | residual activity ([19]; compound 1.0 µM): 83% | residual activity ([19]; compound 10.0 µM): 86% | residual activity ([20]; compound 0.1 µM): 132% | residual activity ([20]; compound 1.0 µM): 139% | residual activity ([20]; compound 10.0 µM): 101% | IC50 [21]: 950 nM | residual activity ([21]; compound 0.1 µM): 80% | residual activity ([21]; compound 1.0 µM): 42% | residual activity ([21]; compound 10.0 µM): 14% | residual activity ([22]; compound 0.1 µM): 92% | residual activity ([22]; compound 1.0 µM): 93% | residual activity ([22]; compound 10.0 µM): 79% | residual activity ([23]; compound 0.1 µM): 101% | residual activity ([23]; compound 1.0 µM): 73% | residual activity ([23]; compound 10.0 µM): 72% | residual activity ([24]; compound 0.1 µM): 74% | residual activity ([24]; compound 1.0 µM): 73% | residual activity ([24]; compound 10.0 µM): 60% | residual activity ([25]; compound 0.1 µM): 72% | residual activity ([25]; compound 1.0 µM): 95% | residual activity ([25]; compound 10.0 µM): 82% | residual activity ([26]; compound 0.1 µM): 121% | residual activity ([26]; compound 1.0 µM): 100% | residual activity ([26]; compound 10.0 µM): 91% | residual activity ([27]; compound 0.1 µM): 78% | residual activity ([27]; compound 1.0 µM): 75% | residual activity ([27]; compound 10.0 µM): 70% | IC50 [28]: 4700 nM | residual activity ([28]; compound 0.1 µM): 85% | residual activity ([28]; compound 1.0 µM): 83% | residual activity ([28]; compound 10.0 µM): 33%
